Tests used:
QPCT = biological target: T1, QPCT (Homo sapiens, UniProt Q16769); test: Assay A: biochemical QPCT activity assay (MALDI-TOF MS, CD47 peptide substrate); details: compounds of the invention; 0.5 nM enzyme, 20 μM CD47 peptide substrate; read-out: Inhibition of QPCT: IC50
T1 construct: purchased Origine (so in the source)
Procedure: (§1) QPCT or QPCTL dependent conversion of N-terminal glutamine to pyroglutamate of CD47 was monitored via MALDI-TOF MS. Test compounds were dissolved in 100% DMSO and serially diluted into clear 1,536-well microtiter plates. Enzymatic reactions were set up in assay buffer containing 20 mM Tris pH 7.5, 0.1 mM TCEP, 0.01% BSA, and 0.001% Tween20. […] The plates were incubated for 10 min in a humidified incubator at 24° C. Subsequently, 2.5 μL of CD47 peptide substrate surrogate (^19[…]^33) was added to each well (final concentration: 10 μM for QPCTL/20 μM for QPCT). The plates were mixed for 30 sec at 1,000 rpm and subsequently incubated for 40 min in a humidified incubator at 24° C. […] The plates were sealed with an adhesive foil, mixed for 30 s at 1,000 rpm and stored at room temperature until preparation of the MALDI target plates. […] QPCT or QPCTL activity was monitored by calculating the ratio between product and internal standard signals followed by normalization to high (100% activity) and low (0% activity) controls. Determination of compound potencies was obtained by fitting the dose-response data to a four-parameter logistical equation.

[1] = test system: SIRPα signalling induced by A549 cells; test: Assay B: SIRPα signalling assay using A549 cells; type: cell-based; details: Homo sapiens; compounds of the invention; A549 cells 48 h, Jurkat PathHunter SIRPαV1 reporter cells 5 h; read-out: Inhibition of SIRPα signalling induced by A549 cells: IC50
Procedure: (§2) Two cell types are independently used: the Raji cell line (lymphoblast-like human cell line derived from B lymphocytes from a Burkitt's lymphoma patient in 1963) and A549 cells (adenocarcinoma human alveolar basal epithelial cells).
(§3) Test compounds were dissolved in 100% DMSO and serially diluted into a white 384-well microtiter cell culture plate (PerkinElmer #60076780 in case of Raji assay; PDL-coated plates Greiner #781945 in case of A549 assay). 5000 Raji cells (ATCC #CC86) or 5000 A549 cells (ATCC #CCL-185) in Assay Complete Cell Plating reagent 30 (DiscoverX 93-0563R30B) were added per well. The assay plate was incubated for 48 h at 37° C., 95% humidity and 5% CO2. 15000 reporter cells (Jurkat PathHunter SIRPαV1, DiscoverX #93-1135C19) were added to each well, and the plate was incubated for 5 h at 37° C., 95% humidity and 5% CO2. Bioassay reagent 1 of the PathHunter Bioassay detection kit (DiscoverX 93-0001) was added to each well of the plate using a multichannel pipette followed by a 15 min incubation at room temperature. Afterwards bioassay reagent 2 was added followed by 60 min incubation at room temperature (incubation in the dark).
(§4) The analysis of the data was performed using the luminescence signal generated by beta-galactosidase in the PathHunter reporter cell line. The luminescence measurement was done using a Pherastar Multi-Mode Reader. Dose-response curves & IC50 data were calculated with 4-parameter sigmoidal dose response formula.

[2] = test system: SIRPα signalling induced by Raji cells; test: Assay B: SIRPα signalling assay using Raji cells; type: cell-based; details: Homo sapiens; compounds of the invention; Raji cells 48 h, Jurkat PathHunter SIRPαV1 reporter cells 5 h; read-out: Inhibition of SIRPα signalling induced by Raji cells: IC50
Procedure: as §2, §3, §4

[3] = Assay C: permeability in CACO-2 cells; type: in vitro ADME; details: human, pH 7.2, compounds of the invention; for efflux ratio at 2 h: Caco-2, permeability B-A / permeability A-B; for Papp A→B at 2 h: Caco-2, apical to basolateral
Procedure: Caco-2 cells (1-2×10^5 cells/1 cm^2 area) are seeded on filter inserts (Costar transwell polycarbonate or PET filters, 0.4 μm pore size) and cultured (DMEM) for 10 to 25 days. Compounds are dissolved in appropriate solvent (like DMSO, 1-20 mM stock solutions). […] The transport solution (TL) is applied to the apical or basolateral donor side for measuring A-B or B-A permeability (3 filter replicates), respectively. Samples are collected at the start and end of experiment from the donor and at various time intervals for up to 2 hours also from the receiver side for concentration measurement by HPLC-MS/MS or scintillation counting. Sampled receiver volumes are replaced with fresh receiver solution.
Efflux ratio(ER)=permeabilityB−A/permeabilityA−B

QPCTL = biological target: T2, QPCTL (Homo sapiens, UniProt Q9NXS2); test: Assay A: biochemical QPCTL activity assay (MALDI-TOF MS, CD47 peptide substrate); details: compounds of the invention; 0.5 nM enzyme, 10 μM CD47 peptide substrate; read-out: Inhibition of QPCTL: IC50
T2 construct: made in house
T2 sequence (Q9NXS2 whole entry): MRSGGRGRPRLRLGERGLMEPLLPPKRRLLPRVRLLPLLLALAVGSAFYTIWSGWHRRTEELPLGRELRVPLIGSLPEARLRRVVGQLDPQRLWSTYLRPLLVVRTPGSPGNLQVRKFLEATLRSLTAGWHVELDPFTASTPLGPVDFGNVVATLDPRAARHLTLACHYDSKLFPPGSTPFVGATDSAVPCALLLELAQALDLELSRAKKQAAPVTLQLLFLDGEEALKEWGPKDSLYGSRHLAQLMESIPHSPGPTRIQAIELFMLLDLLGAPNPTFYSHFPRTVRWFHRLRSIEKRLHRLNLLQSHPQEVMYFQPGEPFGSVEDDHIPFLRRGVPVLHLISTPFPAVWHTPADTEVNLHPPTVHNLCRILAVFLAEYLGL
Procedure: as §1

T1 sequence (Q16769 29-361): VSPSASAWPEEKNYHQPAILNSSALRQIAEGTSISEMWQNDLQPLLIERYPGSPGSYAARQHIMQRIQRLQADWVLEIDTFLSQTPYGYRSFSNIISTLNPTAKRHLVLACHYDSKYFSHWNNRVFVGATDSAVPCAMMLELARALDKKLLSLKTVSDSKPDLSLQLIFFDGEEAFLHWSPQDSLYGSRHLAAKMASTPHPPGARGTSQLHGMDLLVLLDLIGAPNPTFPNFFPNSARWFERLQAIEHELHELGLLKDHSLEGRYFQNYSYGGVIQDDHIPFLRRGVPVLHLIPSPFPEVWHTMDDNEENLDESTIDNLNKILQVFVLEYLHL

| Structure (SMILES) | IC50 (QPCT) | IC50 [1] | IC50 [2] | efflux ratio at 2 h [3] | Papp A→B at 2 h [3] | IC50 (QPCTL) |
| --- | --- | --- | --- | --- | --- | --- |
| Cn1cnnc1C1(F)CCN(c2c(C#N)ccnc2-c2cnc(F)cc2Cl)CC1 [Example 22] | 15 nM | 218 nM | 435 nM | 1.6 | 340 nm/s | 5 nM |
| Cn1cnnc1C1(F)CCN(c2c(C#N)ccnc2-n2cnc3nc(C(F)(F)F)ccc32)CC1 [Example 24] | 11 nM | 349 nM | 321 nM | 14.1 | 10 nm/s | 7 nM |
| Cc1cc(C#N)c(N2CCC(F)(c3nncn3C)CC2)c(-c2cnc3nn(C(C)(C)C)c(C(F)(F)F)c3c2)n1 [Example 27] | 2 nM | 34 nM | 26 nM | 2.4 | 380 nm/s | 2 nM |
| Cn1cnnc1C1(F)CCN(c2c(C#N)cc(C3CC3)nc2-c2ccc(F)nc2)CC1 [Example 31] | 4 nM | 41 nM | 87 nM | 1.4 | 620 nm/s | 2 nM |
| Cn1cnnc1C1(F)CCN(c2c(C#N)cc(C(C)(F)F)nc2-c2cnc3nn(C(C)(C)C)c(F)c3c2)CC1 [Example 33] | 1 nM | 26 nM | 13 nM | 2.2 | 310 nm/s | 1 nM |
| Cn1cnnc1C1(F)CCN(c2c(C#N)cc(C(C)(F)F)nc2-c2ccc(F)nc2)CC1 [Example 34] | 6 nM | 20 nM | 37 nM | 1.7 | 230 nm/s | 2 nM |
| Cn1cnnc1C1(F)CCN(c2c(C#N)cc(C(F)F)nc2-c2ccc(F)nc2)CC1 [Example 35] | 10 nM | 43 nM | 154 nM | 3.6 | 170 nm/s | 3 nM |
| Cn1cnnc1C1(F)CCN(c2c(C#N)cc(Cl)nc2-c2ccc(F)nc2)CC1 [Example 37] | 6 nM | 35 nM | 95 nM | 2.2 | 230 nm/s | 2 nM |
| Cn1cnnc1C1(F)CCN(c2c(-c3ccc(F)nc3)ncc(Cl)c2C#N)CC1 [Example 39] | 6 nM | 106 nM | 247 nM | 2.9 | 160 nm/s | 3 nM |
| Cn1cnnc1C1(F)CCN(c2c(-c3ccc(F)nc3)ncc(C(F)(F)F)c2C#N)CC1 [Example 40] | 5 nM | 115 nM | 258 nM | 2.8 | 180 nm/s | 4 nM |
| Cc1cnc(-c2ccc(F)nc2)c(N2CCC(F)(c3nncn3C)CC2)c1C#N [Example 41] | 2 nM | 16 nM | 71 nM | 2.6 | 280 nm/s | 1 nM |

Results, then the compound that gave them:

| IC50 (QPCT) | IC50 [1] | IC50 [2] | efflux ratio at 2 h [3] | Papp A→B at 2 h [3] | IC50 (QPCTL) | Structure (SMILES) |
| --- | --- | --- | --- | --- | --- | --- |
| 1 nM | 7 nM | 9 nM | 9.9 | 76 nm/s | 1 nM | Cc1cc(C#N)c(N2CCC(F)(c3nncn3C)CC2)c(-c2cnc3nn(C(C)(C)C)c(F)c3c2)n1 [Example 25] |
| < 1 nM | 13 nM | 6 nM | 4.2 | 200 nm/s | < 1 nM | Cc1cc(C#N)c(N2CCC(F)(c3nncn3C)CC2)c(-c2cnc3nn(C(C)(C)C)c(Cl)c3c2)n1 [Example 26] |
| < 1 nM | 12 nM | 7 nM | 3.8 | 190 nm/s | 1 nM | Cn1cnnc1C1(F)CCN(c2c(C#N)cc(C3CC3)nc2-c2cnc3nn(C(C)(C)C)cc3c2)CC1 [Example 28] |
| 1 nM | 45 nM | 17 nM | 2.7 | 290 nm/s | 1 nM | Cn1cnnc1C1(F)CCN(c2c(C#N)cc(C3CC3)nc2-c2cnc3nn(C(C)(C)C)c(F)c3c2)CC1 [Example 29] |
| 1 nM | 20 nM | 25 nM | 9.4 | 94 nm/s | 1 nM | CC(C)n1nc2ncc(-c3nc(C4CC4)cc(C#N)c3N3CCC(F)(c4nncn4C)CC3)cc2c1F [Example 30] |
| 1 nM | 21 nM | 4 nM | 8.2 | 82 nm/s | 1 nM | Cn1cnnc1C1(F)CCN(c2c(C#N)cc(C(C)(F)F)nc2-c2cnc3nn(C(C)(C)C)cc3c2)CC1 [Example 32] |
| < 1 nM | 13 nM | 9 nM | 13.3 | 58 nm/s | 1 nM | Cn1cnnc1C1(F)CCN(c2c(C#N)cc(Cl)nc2-c2cnc3nn(C(C)(C)C)cc3c2)CC1 [Example 36] |
| < 1 nM | 6 nM | 21 nM | 10.9 | 66 nm/s | 1 nM | Cn1cnnc1C1(F)CCN(c2c(-c3cnc4nn(C(C)(C)C)cc4c3)ncc(Cl)c2C#N)CC1 [Example 38] |

— patent US20250059166A1, “PIPERIDINYLPYRIDINYLCARBONITRILE DERIVATIVES AS INHIBITORS OF GLUTAMINYL-PEPTIDE CYCLOTRANSFERASE AND GLUTAMINYL-PEPTIDE CYCLOTRANSFERASE LIKE PROTEIN” (Boehringer Ingelheim International GmbH, priority 2023, published 2025)
